Data from patent publication US20150057357A1, “BIS (THIOHYDRAZIDE AMIDE) COMPOUNDS FOR TREATING CANCERS” (The Board of Trustees of The Leland Stanford Junior …, priority 2012, published 2015).

Tests used:
[1] = test system: basal-like breast cancer cells (BT549, HCC1806, MDAMB468); assay: MTT drug sensitivity assay, basal-like breast cancer cells; format: cell-based, human
From the text: (§1) Human breast cell lines represented the normal breast (MCF12A), basal-like breast cancer (BT549, HCC1806, MDAMB468), BRCA1-mutated breast cancer (HCC1937, SUM149PT, SUM1315MO2), and luminal breast cancer (BT474, MDAMB361, and T47D). Stable cell lines expressing shRNA to hOGG1 (shOGG1) or a non-targeting control (shCTRL) and BRCA1^+/+ and BRCA1^−/− mouse mammary epithelial cells have been previously described (E. Alli, V. B. Sharma, P. Sunderesakumar, J. M. Ford, Defective repair of oxidative dna damage in triple-negative breast cancer confers sensitivity to inhibition of poly(ADP-ribose) polymerase, Cancer Res, 69, 2009, 3589-3596). All cell lines were maintained at 37° C. and 5% CO2.
(§2) Cells were exposed to increasing concentrations of elesclomol and incubated at 37° C. in the presence of 5% CO2 for 96 hours. Cellular sensitivity was then determined by MTT assay and expressed as a percentage of the vehicle control (DMSO). Each data point represents the average of quadruplicate determinations +/−S.D. Images were obtained under 10× objective and are representative.
(§3) Cell lines that represent the normal breast or BRCA1-mutated, basal-like or luminal breast cancers were examined for sensitivity to elesclomol. Shown in FIG. 1 are images of BRCA-1 mutated, basal-like or luminal breast cancer cell cultures after treatment with 0 μM, 0.2 μM or 1 μM elesclomol. […]

[2] = test system: BRCA1-mutated breast cancer cells (HCC1937, SUM149PT, SUM1315MO2); assay: MTT drug sensitivity assay, BRCA1-mutated breast cancer cells; format: cell-based, human
From the text: as §1, §2, §3

[3] = test system: normal breast cells (MCF12A); assay: MTT drug sensitivity assay, normal breast cells; format: cell-based, human; details: concentrations of up to 1 μM, 96 hours, FIG. 2
From the text: as §1, §2, §3

[4] = test system: luminal breast cancer cells (BT474, MDAMB361, T47D); assay: MTT drug sensitivity assay, luminal breast cancer cells; format: cell-based, human; details: concentrations of up to 1 μM, 96 hours, FIG. 2
From the text: as §1, §2, §3

[5] = test system: cell lines deficient in the hOOG1 DNA glycosylase (shOGG1-A and sh-OGG1-B); assay: MTT drug sensitivity assay, base excision repair deficient cells; format: cell-based; details: shOGG1-A and sh-OGG1-B versus isogenic controls shCTRL-A and shCTRL-B; FIG. 3
From the text: as §1, §2
Two different cell lines deficient in the hOOG1 DNA glycosylase that initiates base excision repair (shOGG1-A and sh-OGG1-B) and their isogenic control cells lines (shCTRL-A and shCTRL-B) were examined for sensitivity to elesclomol.

CN(NC(=O)CC(=O)NN(C)C(=S)c1ccccc1)C(=S)c1ccccc1 [elesclomol]
sensitivity to elesclomol (cellular viability dose-response) ([1]; basal-like breast cancers compared to normal breast cells or luminal breast cancer cells, FIG. 1, FIG. 2): increased sensitivity
induced cell death ([1]; concentrations of up to 1 μM, 96 hours, basal-like breast cancer cells, FIG. 2): up to 75%
sensitivity to elesclomol (cellular viability dose-response) ([2]; BRCA1-mutated breast cancers compared to normal breast cells or luminal breast cancer cells, FIG. 1, FIG. 2): increased sensitivity
induced cell death ([2]; concentrations of up to 1 μM, 96 hours, BRCA1-mutated breast cancer cells, FIG. 2): up to 95%
effect of treatment on cells (cell death) [3]: remained unaffected
effect of treatment on cells (cell death) [4]: remained unaffected
sensitivity to elesclomol (cell viability, MTT) [5]: increased sensitivity
